Measured values taken from patent US11053204B2, “Pyrimidinyloxy benzene derivatives as herbicides” (FMC Corporation, priority 2015, dated 2021).

What was measured:
Assay type in all cases: in vivo
[1] = system: barnyardgrass (Echinochloa crus-galli); test: Test A preemergence, visual injury rating
How it was run: (§1)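 Compounds in non-phytotoxic solvent with surfactant applied as soil spray preemergence, or postemergence to plants 2-10 cm at one- to two-leaf stage, in loam/sand. After approximately 10 days in greenhouse, injury rated visually versus untreated controls, 0 (no effect) to 100 (complete control).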

[2] = system: giant foxtail (Setaria faberii); test: Test A preemergence, visual injury rating
How it was run: as §1

[3] = system: ragweed (common ragweed, Ambrosia elatior); test: Test A preemergence, visual injury rating
How it was run: as §1

[4] = system: Italian ryegrass (Lolium multiflorum); test: Test A preemergence, visual injury rating
How it was run: as §1

[5] = system: foxtail, giant (giant foxtail, Setaria faberii); test: Test C preemergence, plant response rating; details: Preemergence
How it was run: (§2)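 Visual injury score, 0 = no effect, 100 = complete control, assigned against untreated controls after 13 to 15 d in the greenhouse. Compounds were applied in a surfactant-containing non-phytotoxic solvent mix, preemergence to seeded loam/sand or silt loam soil, or postemergence to 1- to 4-leaf plants (2 to 18 cm).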

[6] = system: velvetleaf (Abutilon theophrasti); test: Test C preemergence, plant response rating; details: Preemergence
How it was run: as §2

[7] = system: crabgrass, large (large crabgrass, Digitaria sanguinalis); test: Test C preemergence, plant response rating; details: Preemergence
How it was run: as §2

[8] = system: waterhemp (common waterhemp, Amaranthus rudis); test: Test C preemergence, plant response rating; details: Preemergence
How it was run: as §2

soybean (Glycine max) = test: Test C preemergence, plant response rating; details: Preemergence
How it was run: as §2

[9] = system: blackgrass (Alopecurus myosuroides); test: Test C preemergence, plant response rating; details: Preemergence
How it was run: as §2

[10] = system: wheat (winter wheat, Triticum aestivum); test: Test C preemergence, plant response rating; details: Preemergence
How it was run: as §2

[11] = system: ryegrass, Italian (Italian ryegrass, Lolium multiflorum); test: Test C preemergence, plant response rating; details: Preemergence
How it was run: as §2

[12] = system: morningglory (Ipomoea coccinea); test: Test C preemergence, plant response rating; details: Preemergence
How it was run: as §2

corn (Zea mays) = test: Test C preemergence, plant response rating; details: Preemergence
How it was run: as §2

[13] = system: ragweed (common ragweed, Ambrosia elatior); test: Test C preemergence, plant response rating; details: Preemergence
How it was run: as §2

[14] = system: lambsquarters (Chenopodium album); test: Test C preemergence, plant response rating; details: Preemergence
How it was run: as §2

[15] = system: oilseed rape (Brassica napus); test: Test C preemergence, plant response rating; details: Preemergence
How it was run: as §2

[16] = system: nutsedge, yellow (yellow nutsedge, Cyperus esculentus); test: Test C preemergence, plant response rating; details: Preemergence
How it was run: as §2

[17] = 31 g ai/ha, 0 to 100 scale, 0 no effect, 100 complete control
[18] = 125 g ai/ha, 0 to 100 scale (0 no effect, 100 complete control)

Structure (SMILES): O=C(CCCC(F)(F)F)c1c(Cl)cccc1Oc1ncc(Cl)cn1 [Compound 143]
- Plant response rating, Barnyardgrass [1, 17]: 20
- Plant response rating, Barnyardgrass [1, 18]: 100
- Plant response rating, Foxtail, Giant [2, 17]: 100
- Plant response rating, Foxtail, Giant [2, 18]: 100
- Plant response rating, Ragweed [3, 17]: 0
- Plant response rating, Ragweed [3, 18]: 0
- Plant response rating, Ryegrass, Italian [4, 17]: 20
- Plant response rating, Ryegrass, Italian [4, 18]: 70
- Plant response rating, Foxtail, Giant ([5]; 125 g ai/ha, scale of 0 to 100): 100
- Plant response rating, Foxtail, Giant ([5]; 31 g ai/ha, scale 0 to 100): 98
- Plant response rating, Foxtail, Giant ([5]; 62 g ai/ha, scale 0 to 100): 100
- Plant response rating, Velvetleaf ([6]; 125 g ai/ha, scale of 0 to 100): 70
- Plant response rating, Velvetleaf ([6]; 31 g ai/ha, scale 0 to 100): 10
- Plant response rating, Velvetleaf ([6]; 62 g ai/ha, scale 0 to 100): 40
- Plant response rating, Crabgrass, Large ([7]; 125 g ai/ha, scale of 0 to 100): 100
- Plant response rating, Crabgrass, Large ([7]; 16 g ai/ha, scale 0 to 100): 70
- Plant response rating, Crabgrass, Large ([7]; 31 g ai/ha, scale 0 to 100): 100
- Plant response rating, Crabgrass, Large ([7]; 62 g ai/ha, scale 0 to 100): 100
- Plant response rating, Waterhemp ([8]; 125 g ai/ha, scale of 0 to 100): 100
- Plant response rating, Waterhemp ([8]; 31 g ai/ha, scale 0 to 100): 98
- Plant response rating, Waterhemp ([8]; 62 g ai/ha, scale 0 to 100): 100
- Plant response rating, Soybean (soybean (Glycine max); 125 g ai/ha, scale of 0 to 100): 20
- Plant response rating, Soybean (soybean (Glycine max); 31 g ai/ha, scale 0 to 100): 0
- Plant response rating, Soybean (soybean (Glycine max); 62 g ai/ha, scale 0 to 100): 15
- Plant response rating, Blackgrass ([9]; 125 g ai/ha, scale of 0 to 100): 75
- Plant response rating, Blackgrass ([9]; 16 g ai/ha, scale 0 to 100): 5
- Plant response rating, Blackgrass ([9]; 31 g ai/ha, scale 0 to 100): 75
- Plant response rating, Blackgrass ([9]; 62 g ai/ha, scale 0 to 100): 80
- Plant response rating, Wheat ([10]; 125 g ai/ha, scale of 0 to 100): 0
- Plant response rating, Wheat ([10]; 31 g ai/ha, scale 0 to 100): 0
- Plant response rating, Wheat ([10]; 62 g ai/ha, scale 0 to 100): 0
- Plant response rating, Ryegrass, Italian ([11]; 125 g ai/ha, scale of 0 to 100): 45
- Plant response rating, Ryegrass, Italian ([11]; 31 g ai/ha, scale 0 to 100): 20
- Plant response rating, Ryegrass, Italian ([11]; 62 g ai/ha, scale 0 to 100): 30
- Plant response rating, Morningglory ([12]; 125 g ai/ha, scale of 0 to 100): 25
- Plant response rating, Morningglory ([12]; 31 g ai/ha, scale 0 to 100): 0
- Plant response rating, Morningglory ([12]; 62 g ai/ha, scale 0 to 100): 5
- Plant response rating, Corn (corn (Zea mays); 125 g ai/ha, scale of 0 to 100): 20
- Plant response rating, Corn (corn (Zea mays); 16 g ai/ha, scale 0 to 100): 5
- Plant response rating, Corn (corn (Zea mays); 31 g ai/ha, scale 0 to 100): 0
- Plant response rating, Corn (corn (Zea mays); 62 g ai/ha, scale 0 to 100): 0
- Plant response rating, Ragweed ([13]; 125 g ai/ha, scale of 0 to 100): 5
- Plant response rating, Ragweed ([13]; 31 g ai/ha, scale 0 to 100): 0
- Plant response rating, Ragweed ([13]; 62 g ai/ha, scale 0 to 100): 0
- Plant response rating, Lambsquarters ([14]; 125 g ai/ha, scale of 0 to 100): 95
- Plant response rating, Lambsquarters ([14]; 31 g ai/ha, scale 0 to 100): 10
- Plant response rating, Lambsquarters ([14]; 62 g ai/ha, scale 0 to 100): 95
- Plant response rating, Oilseed Rape ([15]; 125 g ai/ha, scale of 0 to 100): 98
- Plant response rating, Oilseed Rape ([15]; 31 g ai/ha, scale 0 to 100): 5
- Plant response rating, Oilseed Rape ([15]; 62 g ai/ha, scale 0 to 100): 80
- Plant response rating, Nutsedge, Yellow ([16]; 125 g ai/ha, scale of 0 to 100): 5
- Plant response rating, Nutsedge, Yellow ([16]; 31 g ai/ha, scale 0 to 100): 0
- Plant response rating, Nutsedge, Yellow ([16]; 62 g ai/ha, scale 0 to 100): 0

Structure (SMILES): N#CC(CCCC(F)(F)F)c1ccccc1Oc1ncc(Cl)cn1 (stereo not drawn) [Compound 144]
- Plant response rating, Barnyardgrass [1, 17]: 80
- Plant response rating, Barnyardgrass [1, 18]: 100
- Plant response rating, Foxtail, Giant [2, 17]: 100
- Plant response rating, Foxtail, Giant [2, 18]: 100
- Plant response rating, Ragweed [3, 17]: 0
- Plant response rating, Ragweed [3, 18]: 10
- Plant response rating, Ryegrass, Italian [4, 17]: 20
- Plant response rating, Ryegrass, Italian [4, 18]: 70
- Plant response rating, Foxtail, Giant ([5]; 125 g ai/ha, scale of 0 to 100): 100
- Plant response rating, Foxtail, Giant ([5]; 31 g ai/ha, scale 0 to 100): 85
- Plant response rating, Foxtail, Giant ([5]; 62 g ai/ha, scale 0 to 100): 100
- Plant response rating, Velvetleaf ([6]; 125 g ai/ha, scale of 0 to 100): 45
- Plant response rating, Velvetleaf ([6]; 31 g ai/ha, scale 0 to 100): 0
- Plant response rating, Velvetleaf ([6]; 62 g ai/ha, scale 0 to 100): 15
- Plant response rating, Crabgrass, Large ([7]; 125 g ai/ha, scale of 0 to 100): 100
- Plant response rating, Crabgrass, Large ([7]; 16 g ai/ha, scale 0 to 100): 85
- Plant response rating, Crabgrass, Large ([7]; 31 g ai/ha, scale 0 to 100): 98
- Plant response rating, Crabgrass, Large ([7]; 62 g ai/ha, scale 0 to 100): 100
- Plant response rating, Waterhemp ([8]; 125 g ai/ha, scale of 0 to 100): 100
- Plant response rating, Waterhemp ([8]; 31 g ai/ha, scale 0 to 100): 98
- Plant response rating, Waterhemp ([8]; 62 g ai/ha, scale 0 to 100): 98
- Plant response rating, Soybean (soybean (Glycine max); 125 g ai/ha, scale of 0 to 100): 60
- Plant response rating, Soybean (soybean (Glycine max); 31 g ai/ha, scale 0 to 100): 0
- Plant response rating, Soybean (soybean (Glycine max); 62 g ai/ha, scale 0 to 100): 30
- Plant response rating, Blackgrass ([9]; 125 g ai/ha, scale of 0 to 100): 30
- Plant response rating, Blackgrass ([9]; 16 g ai/ha, scale 0 to 100): 5
- Plant response rating, Blackgrass ([9]; 31 g ai/ha, scale 0 to 100): 10
- Plant response rating, Blackgrass ([9]; 62 g ai/ha, scale 0 to 100): 40
- Plant response rating, Wheat ([10]; 125 g ai/ha, scale of 0 to 100): 5
- Plant response rating, Wheat ([10]; 62 g ai/ha, scale 0 to 100): 0
- Plant response rating, Ryegrass, Italian ([11]; 125 g ai/ha, scale of 0 to 100): 60
- Plant response rating, Ryegrass, Italian ([11]; 31 g ai/ha, scale 0 to 100): 0
- Plant response rating, Ryegrass, Italian ([11]; 62 g ai/ha, scale 0 to 100): 0
- Plant response rating, Morningglory ([12]; 125 g ai/ha, scale of 0 to 100): 20
- Plant response rating, Morningglory ([12]; 31 g ai/ha, scale 0 to 100): 0
- Plant response rating, Morningglory ([12]; 62 g ai/ha, scale 0 to 100): 10
- Plant response rating, Corn (corn (Zea mays); 125 g ai/ha, scale of 0 to 100): 30
- Plant response rating, Corn (corn (Zea mays); 16 g ai/ha, scale 0 to 100): 0
- Plant response rating, Corn (corn (Zea mays); 31 g ai/ha, scale 0 to 100): 0
- Plant response rating, Corn (corn (Zea mays); 62 g ai/ha, scale 0 to 100): 5
- Plant response rating, Ragweed ([13]; 125 g ai/ha, scale of 0 to 100): 10
- Plant response rating, Ragweed ([13]; 31 g ai/ha, scale 0 to 100): 0
- Plant response rating, Ragweed ([13]; 62 g ai/ha, scale 0 to 100): 0
- Plant response rating, Lambsquarters ([14]; 125 g ai/ha, scale of 0 to 100): 75
- Plant response rating, Lambsquarters ([14]; 31 g ai/ha, scale 0 to 100): 40
- Plant response rating, Lambsquarters ([14]; 62 g ai/ha, scale 0 to 100): 65
- Plant response rating, Oilseed Rape ([15]; 125 g ai/ha, scale of 0 to 100): 90
- Plant response rating, Oilseed Rape ([15]; 31 g ai/ha, scale 0 to 100): 0
- Plant response rating, Oilseed Rape ([15]; 62 g ai/ha, scale 0 to 100): 5
- Plant response rating, Nutsedge, Yellow ([16]; 125 g ai/ha, scale of 0 to 100): 70
- Plant response rating, Nutsedge, Yellow ([16]; 31 g ai/ha, scale 0 to 100): 20
- Plant response rating, Nutsedge, Yellow ([16]; 62 g ai/ha, scale 0 to 100): 60
